Test results: ChEMBL document CHEMBL4190315, “Novel cinnamamide-dibenzylamine hybrids: Potent neurogenic agents with antioxidant, cholinergic, and neuroprotective properties as innovative drugs for Alzheimer's disease” (Eur J Med Chem, 2017)
Calls of active or inactive are those of the source. The calls are words filed in the database; no cut-off is given here.

What was measured:
Acetylcholinesterase [1] = target: Acetylcholinesterase (Electrophorus electricus, UniProt O42275); experiment: Inhibition of electric eel AChE using acetylthiocholine iodide as substrate preincubated for 5 mins followed by substrate addition measured up to 180 secs by spectrophotometric analysis
PC-12 [2] = experiment: Neuroprotective activity against H2O2-induced oxidative damage in rat PC12 cells assessed as increase in cell viability at 1.25 to 25 uM preincubated for 2 hrs followed by H2O2 challenge measured after 24 hrs by MTT assay; format: functional, cell-based
[3] = Effective permeability of compound at 50 ug/mL after 16 hrs by PAMPA-BBB assay
[4] = Antioxidant activity assessed as inhibition of AAPH-induced peroxyl radical generation measured as trolox equivalent preincubated for 15 mins followed by AAPH addition measured every min for 120 mins by ORAC-FL assay; format: functional
Cholinesterase [5] = target: Cholinesterase (Homo sapiens, UniProt P06276); experiment: Inhibition of human serum BChE using S-butyrylthiocholine iodide as substrate preincubated for 5 mins followed by substrate addition measured up to 180 secs by spectrophotometric analysis
[6] = target: Amyloid-beta precursor protein (Homo sapiens) (UniProt P05067); experiment: Inhibition of HFIP pretreated amyloid beta (1 to 42) (unknown origin) self-aggregation at 20 uM after 48 hrs by thioflavin T fluorescence assay relative to control
[7] = Selectivity index, ratio of IC50 for equine serum BChE to IC50 for electric eel AChE
PC-12 [8] = experiment: Cytotoxicity against rat PC12 cells at 1.25 to 50 uM after 24 hrs by MTT assay; format: cell-based; details: pc-12, 24 h
Acetylcholinesterase [9] = target: Acetylcholinesterase (Homo sapiens, UniProt P22303); experiment: Inhibition of human erythrocytic AChE using acetylthiocholine iodide as substrate preincubated for 5 mins followed by substrate addition measured up to 180 secs by spectrophotometric analysis
Cholinesterase [10] = target: Cholinesterase (Equus caballus, UniProt P81908); experiment: Inhibition of equine serum BChE using S-butyrylthiocholine iodide as substrate preincubated for 5 mins followed by substrate addition measured up to 180 secs by spectrophotometric analysis
[11] = Inhibition of Cu2+-mediated aggregation of amyloid beta (1 to 42) (unknown origin) at 50 uM after 24 hrs by thioflavin T fluorescence assay relative to control
[12] = target: Acetylcholinesterase (Electrophorus electricus) (UniProt O42275); experiment: Inhibition of electric eel AChE at 0.001 to 100 uM using acetylthiocholine iodide as substrate preincubated for 5 mins followed by substrate addition measured up to 180 secs by spectrophotometric analysis relative to control
PC-12 [13] = experiment: Neuroprotective activity against H2O2-induced oxidative damage in rat PC12 cells assessed as increase in cell viability at 25 uM preincubated for 2 hrs followed by H2O2 challenge measured after 24 hrs by MTT assay; format: functional, cell-based
[14] = target: Cholinesterase (Equus caballus) (UniProt P81908); experiment: Inhibition of equine serum BChE at 0.001 to 100 uM using S-butyrylthiocholine iodide as substrate preincubated for 5 mins followed by substrate addition measured up to 180 secs by spectrophotometric analysis relative to control
Cholinesterase (Equus caballus), sequence (P81908 whole entry): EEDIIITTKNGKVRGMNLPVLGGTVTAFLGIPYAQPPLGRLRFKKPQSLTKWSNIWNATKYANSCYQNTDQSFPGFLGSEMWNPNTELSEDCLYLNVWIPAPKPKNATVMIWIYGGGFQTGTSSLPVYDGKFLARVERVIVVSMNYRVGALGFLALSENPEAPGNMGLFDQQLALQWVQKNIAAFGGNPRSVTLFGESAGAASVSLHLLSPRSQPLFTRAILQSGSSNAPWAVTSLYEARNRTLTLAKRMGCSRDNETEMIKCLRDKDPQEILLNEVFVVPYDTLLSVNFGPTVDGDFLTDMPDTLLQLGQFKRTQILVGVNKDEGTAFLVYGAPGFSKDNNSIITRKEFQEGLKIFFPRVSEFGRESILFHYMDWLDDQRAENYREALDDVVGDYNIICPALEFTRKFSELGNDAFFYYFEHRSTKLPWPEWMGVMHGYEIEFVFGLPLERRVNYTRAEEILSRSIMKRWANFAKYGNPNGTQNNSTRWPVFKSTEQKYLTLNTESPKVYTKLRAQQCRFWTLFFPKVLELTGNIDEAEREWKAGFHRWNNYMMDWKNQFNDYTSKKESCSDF

Acetylcholinesterase (Electrophorus electricus, UniProt O42275), sequence (O42275 whole entry): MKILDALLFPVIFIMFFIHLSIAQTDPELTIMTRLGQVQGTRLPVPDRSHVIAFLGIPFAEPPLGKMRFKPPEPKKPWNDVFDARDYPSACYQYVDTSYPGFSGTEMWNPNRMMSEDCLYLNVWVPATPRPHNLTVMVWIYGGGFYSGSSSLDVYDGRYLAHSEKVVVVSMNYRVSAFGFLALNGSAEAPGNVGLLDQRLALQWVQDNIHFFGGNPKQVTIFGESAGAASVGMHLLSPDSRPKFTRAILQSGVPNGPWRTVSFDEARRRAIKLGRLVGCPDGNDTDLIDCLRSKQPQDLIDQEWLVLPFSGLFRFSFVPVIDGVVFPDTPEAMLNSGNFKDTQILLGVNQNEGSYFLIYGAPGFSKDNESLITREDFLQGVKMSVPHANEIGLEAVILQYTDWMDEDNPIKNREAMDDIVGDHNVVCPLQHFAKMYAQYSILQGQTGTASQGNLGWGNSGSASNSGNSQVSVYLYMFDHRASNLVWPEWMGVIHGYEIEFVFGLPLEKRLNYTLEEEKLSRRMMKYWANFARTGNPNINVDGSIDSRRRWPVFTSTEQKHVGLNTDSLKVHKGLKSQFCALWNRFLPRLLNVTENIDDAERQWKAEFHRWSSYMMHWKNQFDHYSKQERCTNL
Amyloid-beta precursor protein (Homo sapiens), sequence (P05067 whole entry): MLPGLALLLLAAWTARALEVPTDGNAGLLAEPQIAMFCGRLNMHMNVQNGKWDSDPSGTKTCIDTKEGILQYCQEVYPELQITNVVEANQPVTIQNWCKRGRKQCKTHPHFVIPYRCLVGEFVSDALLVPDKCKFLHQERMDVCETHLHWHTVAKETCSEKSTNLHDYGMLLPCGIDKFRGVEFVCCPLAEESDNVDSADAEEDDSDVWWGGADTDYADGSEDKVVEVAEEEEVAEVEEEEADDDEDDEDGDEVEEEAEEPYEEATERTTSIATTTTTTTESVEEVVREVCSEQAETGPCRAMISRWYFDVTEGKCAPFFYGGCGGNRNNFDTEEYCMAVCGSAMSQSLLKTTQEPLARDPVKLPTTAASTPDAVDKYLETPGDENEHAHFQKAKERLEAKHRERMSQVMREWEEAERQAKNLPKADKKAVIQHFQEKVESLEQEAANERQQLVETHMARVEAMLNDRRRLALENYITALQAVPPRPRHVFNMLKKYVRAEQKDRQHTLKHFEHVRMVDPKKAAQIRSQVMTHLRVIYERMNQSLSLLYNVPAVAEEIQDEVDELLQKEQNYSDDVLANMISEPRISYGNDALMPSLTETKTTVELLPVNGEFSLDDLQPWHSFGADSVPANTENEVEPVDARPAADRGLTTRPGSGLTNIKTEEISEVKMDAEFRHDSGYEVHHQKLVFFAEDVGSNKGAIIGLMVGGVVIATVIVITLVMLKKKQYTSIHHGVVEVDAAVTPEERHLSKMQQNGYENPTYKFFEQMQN
Acetylcholinesterase (Homo sapiens, UniProt P22303), sequence (P22303 whole entry): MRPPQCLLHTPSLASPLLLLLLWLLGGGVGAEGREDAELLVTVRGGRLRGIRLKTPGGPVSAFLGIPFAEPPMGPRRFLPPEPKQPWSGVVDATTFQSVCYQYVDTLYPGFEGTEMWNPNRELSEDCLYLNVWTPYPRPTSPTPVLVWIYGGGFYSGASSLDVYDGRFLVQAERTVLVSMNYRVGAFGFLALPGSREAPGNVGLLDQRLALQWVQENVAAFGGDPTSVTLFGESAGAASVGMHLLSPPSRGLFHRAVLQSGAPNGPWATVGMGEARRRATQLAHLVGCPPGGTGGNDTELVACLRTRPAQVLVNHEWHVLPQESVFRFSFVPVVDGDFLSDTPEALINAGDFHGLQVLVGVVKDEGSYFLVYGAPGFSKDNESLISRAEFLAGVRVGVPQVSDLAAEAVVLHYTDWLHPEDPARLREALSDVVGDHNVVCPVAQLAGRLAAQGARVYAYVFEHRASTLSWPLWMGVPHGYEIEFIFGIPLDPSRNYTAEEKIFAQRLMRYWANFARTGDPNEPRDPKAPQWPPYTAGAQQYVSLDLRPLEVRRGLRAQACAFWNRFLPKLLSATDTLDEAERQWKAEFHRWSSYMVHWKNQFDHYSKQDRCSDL
Cholinesterase (Equus caballus, UniProt P81908), sequence (P81908 whole entry): as the sequence (P81908 whole entry) above
Acetylcholinesterase (Electrophorus electricus), sequence (O42275 24-633 limits assumed): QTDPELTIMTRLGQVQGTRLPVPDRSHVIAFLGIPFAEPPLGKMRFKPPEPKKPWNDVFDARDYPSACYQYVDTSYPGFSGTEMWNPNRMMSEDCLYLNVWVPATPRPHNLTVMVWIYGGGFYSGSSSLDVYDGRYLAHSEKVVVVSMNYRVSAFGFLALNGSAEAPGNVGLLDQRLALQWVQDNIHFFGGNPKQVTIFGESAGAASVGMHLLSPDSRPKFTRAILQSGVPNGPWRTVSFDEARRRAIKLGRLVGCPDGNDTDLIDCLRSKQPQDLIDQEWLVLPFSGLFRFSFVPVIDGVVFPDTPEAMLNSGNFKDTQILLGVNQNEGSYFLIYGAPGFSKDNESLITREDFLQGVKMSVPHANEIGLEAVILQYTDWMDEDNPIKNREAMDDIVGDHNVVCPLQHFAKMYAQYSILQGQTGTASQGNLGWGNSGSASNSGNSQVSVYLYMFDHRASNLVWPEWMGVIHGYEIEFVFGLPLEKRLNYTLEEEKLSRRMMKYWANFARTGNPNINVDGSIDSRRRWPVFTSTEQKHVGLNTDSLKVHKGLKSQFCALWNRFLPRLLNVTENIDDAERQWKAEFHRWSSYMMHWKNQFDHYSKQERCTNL
Cholinesterase (Homo sapiens, UniProt P06276), sequence (P06276 whole entry): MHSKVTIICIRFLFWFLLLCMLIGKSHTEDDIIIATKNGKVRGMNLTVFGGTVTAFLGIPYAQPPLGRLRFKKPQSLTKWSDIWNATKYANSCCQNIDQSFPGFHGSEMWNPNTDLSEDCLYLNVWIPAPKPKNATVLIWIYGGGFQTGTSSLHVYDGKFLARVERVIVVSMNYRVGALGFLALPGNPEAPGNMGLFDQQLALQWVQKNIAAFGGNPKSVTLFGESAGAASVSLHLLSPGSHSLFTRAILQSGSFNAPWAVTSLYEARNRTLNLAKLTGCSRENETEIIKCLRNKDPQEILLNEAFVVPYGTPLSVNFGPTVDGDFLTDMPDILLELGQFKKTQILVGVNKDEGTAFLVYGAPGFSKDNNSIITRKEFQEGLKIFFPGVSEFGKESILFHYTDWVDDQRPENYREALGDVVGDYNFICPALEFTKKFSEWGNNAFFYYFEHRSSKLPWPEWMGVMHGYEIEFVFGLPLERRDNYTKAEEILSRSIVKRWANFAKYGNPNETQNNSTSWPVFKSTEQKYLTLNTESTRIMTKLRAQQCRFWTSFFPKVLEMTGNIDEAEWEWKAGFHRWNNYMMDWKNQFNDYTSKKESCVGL

Structure (SMILES)	IC50 (Acetylcholinesterase [1]) [µM]	Activity (PC-12 [2])	Papp at 16 h, 50 ug/mL [3] [×10⁻⁶ cm/s]	Activity [4] [equiv]	IC50 (Cholinesterase [5]) [µM]	inhibition [6] [%]	Ratio IC50 [7]	Activity (PC-12 [8])	IC50 (Acetylcholinesterase [9]) [µM]	IC50 (Cholinesterase [10]) [µM]	inhibition [11] [%]	inhibition [12] [%]	Activity (PC-12 [13])	inhibition [14] [%]
COc1cc(/C=C/C(=O)Nc2ccc(CN(C)Cc3ccccc3)cc2)ccc1O	3.99	Active	6.21	2.86	5.12	56.8	2.2	Non-Toxic	8.32	8.78	–	–	–	–
CCN(CC)CCCC(C)Nc1ccnc2cc(Cl)ccc12 (configuration not stated)	–	–	–	–	–	–	–	–	–	–	48.8	–	–	–
CN(Cc1ccccc1)Cc1ccc(NC(=O)c2ccccc2)cc1	–	–	–	0.36	–	35.2	–	–	–	5.3	–	38	–	–
CN(Cc1ccccc1)Cc1ccc(NC(=O)/C=C/c2ccccc2)cc1	5.27	–	–	1.1	–	56.8	1.55	–	–	8.21	–	–	–	–
Clc1cccc(Cl)c1N=C1NCCN1 [CLONIDINE]	–	–	3.1	–	–	–	–	–	–	–	–	–	–	–
COc1ccc(/C=C/C(=O)Nc2ccc(CN(C)Cc3ccccc3)cc2)cc1	3.72	–	–	1.34	6.4	57.8	2.2	–	4.56	8.21	–	–	–	–
Cc1c(C)c2c(c(C)c1O)CCC(C)(C(=O)O)O2 (configuration not stated)	–	–	–	–	–	–	–	–	–	–	–	–	Active	–
COc1cc(/C=C/C(=O)O)ccc1O	–	–	–	2.56	–	–	–	–	–	–	–	–	–	–
CN(Cc1ccccc1)Cc1ccc(NC(=O)Cc2ccc(O)cc2)cc1	2.26	–	–	1.38	4.32	38.5	2.12	–	3.24	3.48	–	–	–	–
CCN(Cc1ccccc1)Cc1ccc(NC(=O)CCc2ccccc2)cc1	–	–	–	0.32	–	36.1	–	–	–	13.9	–	34	–	–
CCN(Cc1ccccc1)Cc1ccc(NC(=O)Cc2ccc(OC)c(OC)c2)cc1	1.55	–	–	0.48	1.21	40.6	2.13	–	3.22	3.3	–	–	–	–
CN(Cc1ccccc1)Cc1ccc(NC(=O)CCc2ccccc2)cc1	–	–	–	0.3	–	35.2	–	–	–	5.29	–	45	–	–
COc1ccc(CC(=O)Nc2ccc(CN(C)Cc3ccccc3)cc2)cc1O	1.05	Active	4.37	1.5	1.29	42.5	2.29	Non-Toxic	3.04	2.4	–	–	–	–
CCN(Cc1ccccc1)Cc1ccc(NC(=O)Cc2ccc(OC)c(O)c2)cc1	1.89	–	–	1.48	1.46	43.5	1.76	–	2.76	3.29	–	–	–	–
CC(=O)[C@H]1CC[C@H]2[C@@H]3CCC4=CC(=O)CC[C@]4(C)[C@H]3CC[C@]12C [PROGESTERONE]	–	–	8.62	–	–	–	–	–	–	–	–	–	–	–
CCN(Cc1ccccc1)Cc1ccc(NC(=O)Cc2ccccc2)cc1	6.63	–	–	0.26	–	38.1	1.5	–	–	13.9	–	–	–	–
COc1cc2cc(-c3ccc(CN(C)Cc4ccccc4)cc3)c(=O)oc2cc1OC	0.04	–	–	–	–	–	315	–	–	12.4	–	–	–	–
CN(Cc1ccccc1)Cc1ccc(NC(=O)/C=C/c2ccc([N+](=O)[O-])cc2)cc1	–	–	–	0.8	–	52.8	–	–	–	–	–	35	–	24
CN1C(C(=O)Nc2ccccn2)=C(O)c2ccccc2S1(=O)=O [PIROXICAM]	–	–	3.29	–	–	–	–	–	–	–	–	–	–	–
COc1ccc(/C=C/C(=O)Nc2ccc(CN(C)Cc3ccccc3)cc2)cc1OC	1.94	–	7.56	1.28	1.56	56.6	1.9	–	2.96	3.72	–	–	–	–
CN(Cc1ccccc1)Cc1ccc(NC(=O)Cc2ccccc2)cc1	3.24	–	–	0.38	4.95	33.5	1.63	–	5.8	5.28	–	–	–	–
CN(Cc1ccccc1)Cc1ccc(NC(=O)/C=C/c2ccc(Cl)cc2)cc1	–	–	–	0.82	–	58.6	–	–	–	–	–	41	–	32
CCN(Cc1ccccc1)Cc1ccc(NC(=O)c2ccccc2)cc1	–	–	–	0.32	–	37.1	–	–	–	13.9	–	33	–	–
CCN(Cc1ccccc1)Cc1ccc(NC(=O)Cc2ccc(O)c(O)c2)cc1	3.63	Active	4.41	3.25	2.4	42.1	1.54	Non-Toxic	7.26	5.95	–	–	–	–
CN(Cc1ccccc1)Cc1ccc(NC(=O)/C=C/c2ccc(O)cc2)cc1	4.85	–	–	2.13	–	56.6	1.95	–	–	9.5	–	–	–	–
COc1ccc(CC(=O)Nc2ccc(CN(C)Cc3ccccc3)cc2)cc1OC	1.06	–	–	0.5	1.05	38.5	1.4	–	1.85	1.48	–	–	–	–
NCCc1ccc(O)c(O)c1 [DOPAMINE]	–	–	0.45	–	–	–	–	–	–	–	–	–	–	–
CN(Cc1ccccc1)Cc1ccc(NC(=O)Cc2ccc(O)c(O)c2)cc1	1.68	Active	3.9	3.26	0.95	40.5	1.36	Non-Toxic	4.63	2.28	–	–	–	–
CCN(Cc1ccccc1)Cc1ccc(NC(=O)Cc2ccc(O)cc2)cc1	3.82	–	–	1.35	2.03	42.1	1.16	–	6.5	4.45	–	–	–	–
COc1ccc2[nH]cc(CCNC(C)=O)c2c1	–	–	–	–	–	–	–	–	–	–	–	–	Active	–
